Measured values reported in PubChem BioAssay (NCI).
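Cells were grown in 96-well plates and exposed to each compound for 48 hours at five concentrations; endpoints were interpolated linearly between bracketing concentrations, or set to the highest concentration if not reached. TGI denotes the concentration required for complete inhibition of growth.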 Where a SMILES comes first, the peptide text is derived from it. The star is where a group is joined. Cbz = O=C(OCc1ccccc1)*; Boc = CC(C)(C)OC(=O)*; OBn = c1ccc(CO*)cc1

Experiments:
Assay in all cases: NCI tumour cell line growth inhibition, 48 h
[1] = tested on: BT-549 breast
[2] = tested on: COLO 205 colon
[3] = tested on: HOP-62 NSCLC
[4] = tested on: HOP-92 NSCLC
[5] = tested on: OVCAR-5 ovarian
[6] = tested on: OVCAR-8 ovarian
[7] = tested on: RXF 393 renal
[8] = tested on: SF-539 CNS
[9] = tested on: SK-OV-3 ovarian
[10] = tested on: UACC-62 melanoma
[11] = tested on: UO-31 renal
[12] = tested on: HCC-2998 colon
[13] = tested on: NCI-H460 lung
[14] = tested on: SK-MEL-2 melanoma

Row | Compound | TGI [1] [µM] | TGI [2] [µM] | TGI [3] [µM] | TGI [4] [µM] | TGI [5] [µM] | TGI [6] [µM] | TGI [7] [µM] | TGI [8] [µM] | TGI [9] [µM] | TGI [10] [µM] | TGI [11] [µM] | TGI [12] [µM] | TGI [13] [µM] | TGI [14] [µM]
1 | COC(=O)C(CCCCNC(=O)OCc1ccccc1)NC(=O)C(CCC(=O)OCc1ccccc1)NC(=O)OC(C)(C)C (stereo unspecified) (Boc-Glu(OBn)-Lys(Cbz)-OMe; configuration not given here) | > 100 | > 100 | 32.2 | > 100 | > 100 | > 100 | > 100 | > 100 | > 100 | > 100 | > 100 | – | – | –
2 | N=C1SCCS1 | – | > 100 | > 100 | > 100 | > 100 | > 100 | – | > 100 | > 100 | > 100 | > 100 | > 100 | > 100 | > 100
3 | CCOC(=O)/C(C#N)=N\Nc1ccc(-n2c(C)nc3ccc(Br)cc3c2=O)cc1 | > 100 | > 100 | > 100 | > 100 | > 100 | > 100 | – | > 100 | > 100 | > 100 | > 100 | – | > 100 | > 100
4 | COC(=O)/C=C(\S/C(=C(/c1ccccc1)n1cc(C(=O)OC)c(C(=O)OC)n1)c1ccccc1)C(=O)OC | 98.7 | 4.09 | 31 | – | 32.7 | 3.88 | 31.4 | 32.4 | > 100 | 94 | 5.25 | – | > 100 | 35.8
5 | O=[N+]([O-])c1ccc2nc(/C=C(\O)c3ccccc3)c(/C=C(\O)c3ccc(Cl)cc3)nc2c1 | > 100 | > 100 | 88.2 | – | > 100 | > 100 | 83.9 | > 100 | > 100 | > 100 | > 100 | > 100 | > 100 | > 100
6 | CCOP(=O)(OCC)OC1CC(n2cnc3c(N(CC)CC)ncnc32)OC1CO[Si](C)(C)C(C)(C)C (stereo unspecified) | 29.7 | 32.8 | 34 | – | 37.1 | 56.4 | 32.3 | 33.8 | 31.6 | 28.2 | 35.4 | 43.8 | 32 | 45.6
7 | O=c1[nH]nc(Cc2ccc(Cl)cc2)n1Nc1ccccc1 | > 100 | > 100 | > 100 | > 100 | > 100 | > 100 | – | > 100 | – | > 100 | > 100 | > 100 | > 100 | > 100
8 | COc1ccc2[nH]c3c(c2c1)CCc1ccccc1-3 | > 100 | > 100 | > 100 | > 100 | > 100 | > 100 | – | 32.1 | > 100 | > 100 | > 100 | > 100 | > 100 | > 100
9 | NC1=NC(=O)[C@H](CSCc2ccccc2)N1C(=O)OCc1ccccc1 | > 100 | > 100 | > 100 | – | > 100 | > 100 | > 100 | – | – | > 100 | > 100 | > 100 | > 100 | > 100
10 | Nc1nc(SCC(=O)c2ccccc2)nc2nc3c(c(-c4ccccc4)c12)CCCC3 | > 100 | – | > 100 | – | > 100 | 89 | 70.8 | > 100 | 76.8 | > 100 | > 100 | > 100 | > 100 | > 100
11 | CCCN=C1S/C(=C/c2ccc(OC)c(OC)c2)C(=O)N1c1ccccc1 | > 100 | > 100 | 15.2 | > 100 | > 100 | > 100 | – | 30.2 | 37.8 | > 100 | 98.6 | > 100 | > 100 | 85.8
12 | Cc1ccc(CCCC(=O)O)cc1C | > 100 | – | > 100 | > 100 | > 100 | > 100 | > 100 | – | – | > 100 | > 100 | – | > 100 | > 100
13 | COC(=O)C(NC(=O)C12CCC(C)(C(=O)O1)C2(C)C)c1cc(C(C)(C)C)c(O)c(C(C)(C)C)c1 (stereo unspecified) | > 100 | > 100 | > 100 | > 100 | > 100 | > 100 | > 100 | > 100 | > 100 | > 100 | > 100 | – | – | > 100
14 | c1ccc(NC2(c3nnnn3C3CCCCC3)CCNCC2)cc1 | – | 40.9 | 31.9 | 32.3 | 43.4 | 81.9 | – | 30 | 83.4 | 38.5 | 27.7 | 27.3 | 31.7 | –
15 | COc1ccc2c(c1)OCC1Cc3cccc(OC)c3OC21 (stereo unspecified) | 80 | > 100 | > 100 | > 100 | > 100 | > 100 | – | > 100 | > 100 | > 100 | > 100 | > 100 | – | > 100
16 | COc1ccc(-n2c(-c3ccccc3)cc(-c3cccs3)c2-c2cccs2)cc1 | – | > 100 | > 100 | > 100 | > 100 | > 100 | > 100 | > 100 | > 100 | > 100 | > 100 | > 100 | > 100 | –
17 | COC(=O)C1CCCCCCCCCCC12SCCCS2 (stereo unspecified) | – | 37.4 | 41.2 | 39.9 | 34.7 | 48.8 | 36.4 | 47.4 | > 100 | 59.4 | 38.8 | 61 | > 100 | 41.9
18 | CC(=O)Nc1ccccc1S(=O)(=O)c1c(-c2c(C)c(Cl)c(C)c(Cl)c2C)noc1C | > 100 | > 100 | 50 | – | > 100 | > 100 | > 100 | – | > 100 | > 100 | > 100 | > 100 | > 100 | > 100
